Source: patent US20240197596A1, “COMPOUNDS USEFUL AS HAIR DYES” (National University of Singapore, priority 2021, published 2024)
Converted amounts (≈) assume the structure as drawn. “And” between values parts separate entries of the source, which are not always exact repeats. Equal entries are not always repeated. “Also recorded” adds a separate entry of the source.

Columns and labels:
[1] = Skin permeation study, Franz diffusion cell; format: in vitro ADME, porcine; conditions: for Cumulative amount at 8th hour: 1% w/v in deionized water; for Cumulative amount at 8th hour / Cumulative amount comparison of PPD vs derivatives (times less than PPD) / Permeated through skin into receptor / Recovered in donor compartment / Recovered in skin / Recovered in skin outside diffusion area / Recovered in skin swabs / Recovered on parafilm and in washes: 8 h; for Permeated through skin into receptor / Recovered in donor compartment / Recovered in skin / Recovered in skin outside diffusion area / Recovered in skin swabs / Recovered on parafilm and in washes: mass balance; for recovery at 8 h, 1 % w/v: pig, end of 8 h, read-out: Total recovery (mean percentage parent compound recovery)
Description: In each Franz cell, a piece of pig ear skin prepared to a thickness of […] was clamped securely. 5 mL of PBS solution was added to the receiver compartment which was purged of air bubbles to ensure maximal contact of the skin piece with the solution. Donor solution was prepared by dissolving N1-N13 in deionized water at 1% w/v, and 900 μL was added to the donor compartment. The study was conducted for 8 h, and aliquots of 200 μL were removed from the receiver solution and topped up with fresh PBS at each timepoint of 15-minutes intervals for the first hour and every hour after that.
For mass balance, at the end of 8 h, skin pieces and swabs of the top and bottom surface of the skin were collected and stored in ACN for N1-N13 extraction. Donor solution and receiver solution were also collected.
The aliquot samples collected were subjected to 2-step extraction using 750 μL of dichloromethane (DCM). […] The solvent was dried using the TurboVap, and then reconstituted with 198 μL of 0.1% formic acid in 50% methanol in water and spiked with 2 μL of ANP (internal standard). The processed aliquot samples and mass balance samples were then sent for analysis using LC-MS/MS. The compounds' steady state fluxes and permeability coefficients were then calculated by fitting the solution to Fick's […] of diffusion at the steady state (linear part) of each experimental cumulative amount curve.

[2] = Thermodynamic solubility assay (modified shake flask, LC-MS/MS); conditions: Milli-Q water, pH=7, 25° C., 24 h, 3 separate determinations; for solubility at 24 h: 25 °C, pH 7, water, thermodynamic from solid
Description: The aqueous solubilities (pH=7) of these compounds were measured using the modified shake flask method and LC-MS/MS. Each hair dye was added into a 2 mL glass vial containing Milli-Q water (1 mL) to form the precipitates at 25° C. Then the mixture was subjected to a solubility-equilibrium stage. The vials were shaken at 300 rpm at 25° C. for 24 h. The precipitate was separated by centrifugation at 23,000 g for 20 min. Subsequently, 0.5 mL of supernatant was transferred into a 1 mL Eppendorf tube, and it was centrifuged again as mentioned above. The supernatant was then used for LC-MS/MS analysis.
The mass spectrometric analysis was performed by use of a AB SCIEX QTRAP 5500 tandem mass spectrometry (MS/MS) system (AB SCIEX, Framingham, MA, USA) operating in triple quadrupole positive mode (ESI+) equipped with an AB Sciex Turbo Ion Spray interface. Acquisition and analysis of data were performed with Analyst software ver. 1.4.2 (Applied Biosystems) which performed all chromatographic peak integration. For each hair dye, a standard curve consisting of four concentrations was established.
Solvent A was composed of 0.1% [v/v] formic acid in Milli-Q water while solvent B was composed of 0.1% [v/v] formic acid in acetonitrile. A mobile phase gradient pumped at 0.6 mL/min was used to elute the hair dyes from the column. The column was equilibrated for 1 min resulting in a total run time of 5 min. The injection volume was 5.0 μL for all derivatives. To prevent compound accumulation on the needle, 50% methanol in ACN was used as needle wash for 30 s per sample.

[3] = system: THP-1 cells; test: MTT assay on THP-1 cells (CV75); format: cell-based, human; conditions: THP-1 cells, 24 h
Description: THP-1 (human acute monocytic leukaemia cell line) cell suspension was adjusted to 1×10^5 cells per well and seeded in 96-well plates. The plate was incubated at 37° C. with 5% CO2. After 24 h, 10 mM stock solutions of N1-N13 were prepared in autoclaved milli-Q water. A series of concentrations diluted in media was prepared and added to the wells. Each concentration was performed in 6-replicates, and seeded wells with only media and no compound were used as controls while wells with only media were used as blanks. The plate was incubated for 24 h, after which 100 μL of MTT reagent was added and the plate was further incubated for 3 h before adding 100 μL of DMSO. Subsequently, the plate was shaken for 20 min, and then absorbance at 570 nm was determined using a Bio-Tek plate reader. Percentage cell viability was calculated and CV75 values were determined.

[4] = Hair nuance test; set-up: key to L* / a* / b*: CIELAB L*, a*, b* coordinates; key to ΔE (total colour difference to natural hair): ΔE = √((L*−L0)²+(a*−a0)²+(b*−b0)²) vs untreated hair; conditions: for eventual colour of bleached hair, Type A: Type A (Non-oxidative) formulation; for eventual colour of bleached hair, Type B: Type B (Oxidative, H2O2) formulation; for eventual colour of bleached hair, Type C: Type C (Oxidative with coupler resorcinol) formulation
Description: 35 g of bleaching powder was mixed with 50 mL of developer then applied onto undyed black hair (wrapped in aluminium foil to enhance the bleaching process) and left on for 45 min. The hair was then rinsed with deionized water and shampoo and left to dry. This process was repeated twice.
Hair dye formulations were prepared from N1-N13 according to methods reported (New Journal of Chemistry. 2019; 43(41):16188-99), and with the compositions stated in Table 11 Bleached hair samples were immersed into the respective formulations for 20 min, then air dried for 20 min. Then they were shampooed twice and treated with conditioner for 5 min.
SkinColorCatch (Delfin Technologies Ltd, Kuopio, Finland) was used to measure CIELAB tristimulus L*, a* and b* values of the dyed hair samples and baseline L0, a0, b0 values from untreated hair. The difference in colour tone (ΔH) and the total colour difference (ΔE) were then derived from the values obtained with the equations below:
ΔH=√{square root over ((a*−a0)^2+(b*−b0)^2)}
ΔE=√{square root over ((L*−L0)^2+(a*−a0)^2+(b*−b0)^2)}

[5] = Type C (Oxidative with coupler resorcinol)

CCC(=O)COc1cc(N)ccc1N [Compound N11, 1-(2,5-diaminophenoxy)butan-2-one]
Cumulative amount at 8th hour [1]: 0.00794 μg/cm^2
Cumulative amount comparison of PPD vs derivatives (times less than PPD) [1]: 680
Permeated through skin into receptor [1]: <0.001 % of applied compound dose
Recovered in donor compartment [1]: 93.7 % of applied compound dose
Recovered in skin [1]: 0.06 % of applied compound dose
Recovered in skin outside diffusion area [1]: 0.002 % of applied compound dose
Recovered in skin swabs [1]: 0.025 % of applied compound dose
Recovered on parafilm and in washes [1]: 0.005 % of applied compound dose
recovery at 8 h, 1 % w/v [1]: 93.8 ± 1.3%
solubility at 24 h [2]: 45 mg/mL (≈ 232 mM)
CV75 (concentration affording 75% cell viability), 1 × CV75 [3]: 65.4 µg/mL
L* ([4]; Type A (Non-oxidative)): 36
a* ([4]; Type A (Non-oxidative)): 5
b* ([4]; Type A (Non-oxidative)): 8
ΔE (total colour difference to natural hair) ([4]; Type A (Non-oxidative)): 28.33
ΔH (difference in colour tone) ([4]; Type A (Non-oxidative)): 5.32
eventual colour of bleached hair, Type A [4]: Greyish brown
L* ([4]; Type B (Oxidative)): 9
a* ([4]; Type B (Oxidative)): 0
b* ([4]; Type B (Oxidative)): −1
ΔE (total colour difference to natural hair) ([4]; Type B (Oxidative)): 2
ΔH (difference in colour tone) ([4]; Type B (Oxidative)): 1.41
eventual colour of bleached hair, Type B [4]: black colour
L* [4, 5]: 32
a* [4, 5]: 18
b* [4, 5]: 25
ΔE (total colour difference to natural hair) [4, 5]: 37.8
ΔH (difference in colour tone) [4, 5]: 6.14
eventual colour of bleached hair, Type C [4]: Pale Brown

N#CCOc1cc(N)ccc1N [Compound N6, 2-(2,5-diaminophenoxy)acetonitrile]
Cumulative amount at 8th hour [1]: 0.0145 μg/cm^2
Permeated through skin into receptor [1]: <0.001 % of applied compound dose
Recovered in donor compartment [1]: 99.1 % of applied compound dose
Recovered in skin [1]: 0.01 % of applied compound dose
Recovered in skin outside diffusion area [1]: 0.006 % of applied compound dose
Recovered in skin swabs [1]: 0.04 % of applied compound dose
Recovered on parafilm and in washes [1]: 0.002 % of applied compound dose
CV75 (concentration affording 75% cell viability), 1 × CV75 [3]: 123.7 µg/mL
L* ([4]; Type A (Non-oxidative)): 55.0
a* ([4]; Type A (Non-oxidative)): 10.0
b* ([4]; Type A (Non-oxidative)): 19.0
ΔE (total colour difference to natural hair) ([4]; Type A (Non-oxidative)): 50.3
ΔH (difference in colour tone) ([4]; Type A (Non-oxidative)): 20.5
eventual colour of bleached hair, Type A [4]: light colours; also recorded: Rose pink
L* ([4]; Type B (Oxidative)): 15
a* ([4]; Type B (Oxidative)): 4
b* ([4]; Type B (Oxidative)): 5
ΔE (total colour difference to natural hair) ([4]; Type B (Oxidative)): 8.2
ΔH (difference in colour tone) ([4]; Type B (Oxidative)): 5.6
eventual colour of bleached hair, Type B [4]: Dark brown
L* [4, 5]: 13
a* [4, 5]: 5
b* [4, 5]: 4
ΔE (total colour difference to natural hair) [4, 5]: 7.1
ΔH (difference in colour tone) [4, 5]: 5.8
eventual colour of bleached hair, Type C [4]: Brownish black

COCCOCCOc1cc(N)ccc1N [Compound N5, 2-[2-(2-methoxyethoxy)ethoxy]benzene-1,4-diamine]
Cumulative amount at 8th hour [1]: 0.0065 μg/cm^2 and 0.00654 μg/cm^2
Cumulative amount comparison of PPD vs derivatives (times less than PPD) [1]: 825.0
Permeated through skin into receptor [1]: <0.001 % of applied compound dose
Recovered in donor compartment [1]: 95.3 % of applied compound dose
Recovered in skin [1]: 0.04 % of applied compound dose
Recovered in skin outside diffusion area [1]: 0.0045 % of applied compound dose
Recovered in skin swabs [1]: 0.06 % of applied compound dose
Recovered on parafilm and in washes [1]: 0.009 % of applied compound dose
recovery at 8 h, 1 % w/v [1]: 95 ± 1.42%
solubility at 24 h [2]: 78 to 100 mg/mL (≈ 345 to 442 mM)
Solubility [2]: 85 + 2.5 mg/ml
CV75 (concentration affording 75% cell viability), 1 × CV75 [3]: 68.3 µg/mL
L* ([4]; Type A (Non-oxidative)): 18
a* ([4]; Type A (Non-oxidative)): 4
b* ([4]; Type A (Non-oxidative)): −1
ΔE (total colour difference to natural hair) ([4]; Type A (Non-oxidative)): 10.0
ΔH (difference in colour tone) ([4]; Type A (Non-oxidative)): 4.5
eventual colour of bleached hair, Type A [4]: dark brown colour shade; also recorded: Dark cinnamon brown
L* ([4]; Type B (Oxidative)): 26
a* ([4]; Type B (Oxidative)): 3.7
b* ([4]; Type B (Oxidative)): 10.3
ΔE (total colour difference to natural hair) ([4]; Type B (Oxidative)): 19.7
ΔH (difference in colour tone) ([4]; Type B (Oxidative)): 10.0
eventual colour of bleached hair, Type B [4]: Almond brown
L* [4, 5]: 16
a* [4, 5]: 0
b* [4, 5]: −6.7
ΔE (total colour difference to natural hair) [4, 5]: 10.4
ΔH (difference in colour tone) [4, 5]: 7.7
eventual colour of bleached hair, Type C [4]: vibrant blue colours; also recorded: Indigo

CCOCOc1cc(N)ccc1N [Compound N3, 2-(ethoxymethoxy)benzene-1,4-diamine]
Cumulative amount at 8th hour [1]: 0.0088 μg/cm^2 and 0.00875 μg/cm^2
Permeated through skin into receptor [1]: <0.001 % of applied compound dose
Recovered in donor compartment [1]: 97.2 % of applied compound dose
Recovered in skin [1]: 0.01 % of applied compound dose
Recovered in skin outside diffusion area [1]: 0.004 % of applied compound dose
Recovered in skin swabs [1]: 0.04 % of applied compound dose
Recovered on parafilm and in washes [1]: 0.005 % of applied compound dose
recovery at 8 h, 1 % w/v [1]: 97 ± 1.05%
solubility at 24 h [2]: 65 to 72 mg/mL (≈ 357 to 395 mM)
Solubility [2]: 65 + 3.6 mg/ml
CV75 (concentration affording 75% cell viability), 1 × CV75 [3]: 115 µg/mL
L* ([4]; Type A (Non-oxidative)): 19
a* ([4]; Type A (Non-oxidative)): 5
b* ([4]; Type A (Non-oxidative)): 4
ΔE (total colour difference to natural hair) ([4]; Type A (Non-oxidative)): 11.6
ΔH (difference in colour tone) ([4]; Type A (Non-oxidative)): 5.8
eventual colour of bleached hair, Type A [4]: Black
L* ([4]; Type B (Oxidative)): 9
a* ([4]; Type B (Oxidative)): 0
b* ([4]; Type B (Oxidative)): −1
ΔH (difference in colour tone) ([4]; Type B (Oxidative)): 2.0
eventual colour of bleached hair, Type B [4]: black colour
L* [4, 5]: 17
a* [4, 5]: −1
b* [4, 5]: 2
ΔE (total colour difference to natural hair) [4, 5]: 8.1
ΔH (difference in colour tone) [4, 5]: 1.4
eventual colour of bleached hair, Type C [4]: Brownish black
